In patent publication US10392649B2, “Biosensors that detect NAD+” (Oregon Health & Science University, priority 2014, dated 2019):

Assays:
[1] = Competition for free NAD+ with GAPDH, sensor fluorescence in real time; type: binding; settings: equimolar GAPDH, absence of substrate, 10 μM NAD+
Description: Fluorescence emission of […] purified sensor was monitored at 520 nm following excitation at 488 nm over time. Three 1-second exposures were obtained every 30 seconds at 20° C. in 100 mM HEPES pH7.4, 150 mM NaCl, 10 mM MgCl2. At the 240 timepoint, NAD+ was added to a final concentration of 10 μM; at the 600 second timepoint, full-length active human GAPDH (AbCam) was added to a final concentration of 11.7 μM. Fluorescence measurements were corrected for dilution factor. Mean±SD, n=2.

NAD+ sensor = target: T1, NAD+ sensor (Enterococcus faecalis, UniProt Q837V6, D286N/K120L); test: Specificity of the sensor: fluorescence with related mononucleotides, dinucleotides and NAD+ precursors; type: binding; settings: purified sensor
T1 construct: HA (N); made in house; host or cells: HEK293T
T1 sequence (Q837V6 other isoform, or with tags, fused parts or gaps K120L/D286N): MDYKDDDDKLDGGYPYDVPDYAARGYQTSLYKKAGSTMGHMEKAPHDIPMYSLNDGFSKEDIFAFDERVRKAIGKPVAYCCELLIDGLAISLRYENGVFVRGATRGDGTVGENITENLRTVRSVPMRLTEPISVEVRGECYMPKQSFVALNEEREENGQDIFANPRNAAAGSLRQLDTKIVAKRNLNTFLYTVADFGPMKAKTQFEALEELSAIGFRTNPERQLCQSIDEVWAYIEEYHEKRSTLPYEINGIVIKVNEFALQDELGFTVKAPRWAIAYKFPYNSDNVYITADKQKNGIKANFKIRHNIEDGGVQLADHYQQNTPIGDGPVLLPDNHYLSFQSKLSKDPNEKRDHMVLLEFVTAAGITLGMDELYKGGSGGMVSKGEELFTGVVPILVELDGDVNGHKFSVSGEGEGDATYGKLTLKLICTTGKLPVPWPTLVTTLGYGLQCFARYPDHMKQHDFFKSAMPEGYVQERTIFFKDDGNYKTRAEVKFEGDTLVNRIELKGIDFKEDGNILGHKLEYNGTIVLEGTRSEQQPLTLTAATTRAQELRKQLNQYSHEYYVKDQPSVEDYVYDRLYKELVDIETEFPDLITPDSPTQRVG
Description: To determine the specificity of the sensor for NAD+, sensor fluorescence was evaluated in the presence of related mononucleotides, dinucleotides, and NAD+ precursors (FIG. 14G). […] Thus, pH effects can be accommodated by normalizing to cpVenus. […] (FIG. 24A, 24B, 24C).
(§1) Steady-state fluorescence intensity measurements were performed using a Photon Technology International Quanta Master fluorimeter. Excitation spectra were monitored at 530 nm and emission spectra were measured by excitation at 488 nm and 405 nm. Slit widths used gave 8 nm bandpass for excitation and 44 nm bandpass for emission. Absorbance spectroscopy was performed on a Shimadzu 1601 spectrophotometer. Temperature was controlled with a water jacket and monitored using an Omega Thermistor.

[2] = Calibration of cytoplasmic sensor in digitonin permeabilized HEK293T cells, flow cytometry; type: cell-based
Description: The free NAD+ concentration in the nucleus and cytoplasm has been debated. To calibrate the sensor, cells were permeabilized with digitonin to allow internal NAD+ levels to equilibrate with concentrations external to the cell and fluorescence monitored by flow cytometry. Equilibration was assessed using propidium iodide (PI), whose molecular weight is similar to that of NAD+ (FIG. 29). […] The mean of the fluorescence ratio (488/405 nm) for the cytoplasmic sensor in non-permeabilized HEK293T cells relative to cpVenus was interpolated to reveal a free NAD+ value of 105.8 μM (95% Cl, 92.3 μM to 121.7 μM). […] To confirm these calculations, flow cytometry was used to examine the fluorescence of the cytoplasmic sensor in populations of HeLa cells that were partially permeabilized (FIG. 16B). When equilibrated with either 500 μM or 1 mM NAD+, cytoplasmic fluorescence of the permeabilized cell population decreased, indicating an increase in NAD+. In contrast, equilibration with media containing no external NAD+ increased fluorescence, likely due to NAD+ diffusion. […]
(§2) Data was collected on a special order BD LSRFortessa using 488-1 (Ex. 488 nm, Em. 525/50) and 405-2 (ex. 405 nm, Em. 515/20) for the sensor, and Ex. 561-3 (ex. 561, em 670/30) for PI intensity. Cells were gated to exclude debris, a standard doublet-exclusion was performed, and 1×10^4 fluorescent cells were evaluated per condition. […]

[3] = Fluorescence spectroscopy of purified sensor with NAD+ (cell free); type: binding; settings: for effect of NAD+ on fluorescence (ex. 488 nm): purified protein, NAD+ concentrations up to 1 mM
Description: Fluorescence emission spectra were recorded using a PTI steady-state fluorescence spectrophotometer. Excitation spectra were captured at 530 nm while exciting from 350 to 515 nm. Emission spectra were measured by excitation at 405 nm or 488 nm while scanning the fluorescence intensity of 475 to 600 nm.
The sensors and controls were purified in batch format from mammalian HEK293T cells via their N-terminal Flag epitope tag, using anti-Flag M2 Affinity Gel (Sigma) and lysis buffer (50 mM Tris pH 7.4, 150 mM NaCl, 1 mM EDTA, 10 mM NaF, 0.5% NP-40, 1 mM DTT, and Complete Protease Inhibitor cocktail). Protein was eluted with 500 μg/mL 3× Flag peptide and dialyzed against 100 mM Tris pH 7.4, 150 mM NaCl, 0.5 mM DTT, 100 μM PMSF, 1 mM EDTA, and 50% glycerol. Bradford assays were used to quantify the concentration in each batch and aliquots were flash frozen in liquid nitrogen for storage at −80° C.
as §1

[4] = Fluorescence lifetime measurements of the sensor; settings: 488 nm excitation
Description: Fluorescence lifetime measurements were performed on a PicoQuant FluoTime 200 time correlated single photon counting instrument (PicoQuant, Berlin), outfitted with a Hamamatsu micro-channel plate detector. Decays were measured with the polarizers at the magic angle and with 16 nm bandpass emission slits. […] Emission from the samples was collected at 525 nm, with an additional 520 nm long-pass filter on the detector side of the sample. The fluorescence decays were fit by means of PicoQuant software, using an exponential decay model [I(t)=Σi-1^nAie^−t/τ^i] where A, is the amplitude of the i^th component, in counts, in the first range fitting channel and τi is the lifetime of the i^th component.

[5] = NAD+ washout (reversibility of binding to purified sensor); settings: 500 μM NAD+, elution over buffer exchange column
Description: Purified sensor (2 μM) was incubated with either 0μ or 500 μM NAD+ in a total of 75 μL and evaluated for its fluorescence excitation and emission spectra. Each sample was then passed over a pre-equilibrated (50 mM Tris pH 7.4, 150 mM NaCl) micro buffer exchange column (Biorad microbiospin P30), washed, and eluted in […] buffer volume for reevaluation of fluorescence.

HEK293T cells [6] = test: HPLC of perchlorate extracted NAD+ from HEK293T cells; type: cell-based; settings: 10 nM FK866, 16 hours
Description: FIG. 6A is a set of three HPLC spectra from 10 μM purified NAD^+ standard compared to perchlorate extracted NAD^+ from HEK293T cells treated with 0 nM (middle) or 10 nM (bottom) FK866 for 16 hours. Note that NAD^+ is recovered from untreated cells while it is depleted in FK866 treated cells.

HEK293T = test: NAD+ depletion by FK866 in HEK293T lines expressing localized sensors, live flow cytometry; type: cell-based; settings: 10 nM FK866, 18 hours; nuclear, cytoplasmic, mitochondrial sensors
Description: (§3) Localization sequences were used to direct the sensor to the nucleus, cytoplasm, and mitochondria (FIG. 15A and FIG. 25A, 25B, 25C). […] Mammalian cells predominantly rely on the NAMPT-dependent salvage pathway for NAD+ biosynthesis (Revollo et al, 2004 supra), and presumably all subcellular compartments would be affected by NAMPT inhibition. To test this idea, clonal HEK293T lines stably expressing the localized sensors or their corresponding cpVenus control were generated. Cells were treated with FK866, a potent inhibitor of NAMPT, and NAD+ depletion in different compartments was monitored by live flow cytometry (FIG. 15B). FK866 increased sensor fluorescence in all compartments, indicating a reduction in NAD+ levels. Fluorescence was also monitored in cells expressing the cytoplasmic sensor using live microscopy (FIG. 15C). […]
as §2, with “condition. Data were analyzed and plotted with FlowJo X. Sensor 488/405 ratiometric values were normalized to the appropriate cpVenus and experimental controls.” for “condition.”

HEK293T cells [7] = test: NAD+ depletion by FK866 in cells expressing cytoplasmic sensor, live microscopy; type: cell-based
Description: as §3, with “15C). Treatment with FK866 began to decrease NAD+ levels in the majority of cells within 1 hour; by 3 hours pockets of NAD+ decreases were observed, which spread throughout the cytoplasm.” for “15C).”
(§4) Live cell imaging was done on a fully motorized Nikon TiE stand with a Yokogawa W1 spinning disk confocal unit. […] Cells were excited at 488 nm and monitored with emission 525/25 nm. For each condition, at least 5 fields containing approximately 50-100 cells were used for quantification of pixel intensity using Metamorph software. […]

HeLa cells [8] = test: NR rescue of mitochondrial NAD+ in HeLa cells depleted of NMNAT2; type: cell-based; settings: NR 1 mM, 24 hours, NMNAT2 depletion
Description: To confirm this, HeLa cells, which contain very low levels of NMNAT3, were examined. […] Despite its low expression, NMNAT2 was active in HeLa cells, as its depletion decreased cytoplasmic NAD+ (FIG. 38). […] (FIG. 17B). This depletion was not rescued by addition of NR, implying that cytoplasmic NAD+, and not NMN, is responsible for maintaining mitochondrial NAD+ levels in HeLa cells (FIG. 17B). Thus, there appear to be multiple mechanisms for maintaining mitochondrial NAD+ in different cell types; conversion of NMN by NMNAT3 and active transport of cytoplasmic NAD+. An NAD+ transporter has been identified in bacteria (Haferkamp I et al, Nature 432, 622-625 (2004); incorporated by reference herein), yeast (Todisco S et al, J Biol Chem 281, 1524-1531 (2006); incorporated by reference herein), and plants (Palmieri F et al, J Biol Chem 284, 31249-31259 (2009); incorporated by reference herein), although a mammalian homologue has not yet been identified.
as §4

cytoplasmic sensor = target: T2, cytoplasmic sensor (Enterococcus faecalis, UniProt Q837V6, D286N/K120L); test: NR effect on cytoplasmic sensor fluorescence when NMNAT2 was depleted; type: cell-based; settings: NR 1 mM, 24 hours
T2 construct: expressed in transfected cells; HeLa cells were also used
T2 sequence (Q837V6 other isoform, or with tags, fused parts or gaps K120L/D286N): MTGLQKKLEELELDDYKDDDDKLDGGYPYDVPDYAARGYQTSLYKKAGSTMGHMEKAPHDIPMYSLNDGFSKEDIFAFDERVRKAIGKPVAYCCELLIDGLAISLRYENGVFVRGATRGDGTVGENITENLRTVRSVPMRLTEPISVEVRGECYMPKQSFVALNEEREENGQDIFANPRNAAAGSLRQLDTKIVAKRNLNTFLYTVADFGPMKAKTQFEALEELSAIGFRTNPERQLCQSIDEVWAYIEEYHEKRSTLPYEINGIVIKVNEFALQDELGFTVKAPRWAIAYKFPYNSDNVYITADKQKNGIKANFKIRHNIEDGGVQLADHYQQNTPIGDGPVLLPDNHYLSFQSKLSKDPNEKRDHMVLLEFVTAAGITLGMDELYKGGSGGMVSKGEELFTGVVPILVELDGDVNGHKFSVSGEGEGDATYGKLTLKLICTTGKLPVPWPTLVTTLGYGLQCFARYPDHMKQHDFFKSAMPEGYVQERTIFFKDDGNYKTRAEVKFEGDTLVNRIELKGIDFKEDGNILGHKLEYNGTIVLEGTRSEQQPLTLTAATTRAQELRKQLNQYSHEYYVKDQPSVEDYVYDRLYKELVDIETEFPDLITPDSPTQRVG
Description: FIG. 28 is a bar graph showing that Nicotinamide riboside (NR) has no direct effect on the fluorescence of the cytoplasmic sensor. The cytoplasmically-localized sensor reported a decrease of cytoplasmic NAD+ following depletion of NMNAT2.

HeLa cells [9] = test: NR in HeLa cells treated with siNAMPT, cytoplasmic sensor; type: cell-based; settings: NR 1 mM, 24 hours
Description: In further experiments, siRNAs that target NAMPT were added to the cells (FIG. 15D). […] Importantly, nicotinamide riboside (NR) increased NAD+ levels in these cells through a parallel pathway that utilizes NR kinase to bypass NAMPT (Bieganowski P and Brenner C, Cell 117, 495-502 (2004); incorporated by reference herein) (FIG. 15E).
Live cell imaging was done on a fully motorized Nikon TiE stand with a Yokogawa W1 spinning disk confocal unit. Instrumentation for this project included a motorized stage in x and y for point-revisiting; z-axis control for fast piezo-based positioning and continuous focus-drift compensation for live cell imaging; dual-pinhole array for improved optical sectioning, a high powered Agilent laser launch; split simultaneous acquisition on two Andor Zyla 5.5 sCMOS cameras; and a 100×1.49 Apo TIRF objective. During imaging, cells were maintained in 5% CO2 at 34° C. Cells were excited at 488 nm and monitored with emission 525/25 nm. For each condition, at least 5 fields containing approximately 50-100 cells were used for quantification of pixel intensity using Metamorph software. The mean intensity per field of each siRNA was normalized to the scramble condition to obtain the normalized intensity measurement.

GAPDH: full-length active human glyceraldehyde 3-phosphate dehydrogenase (AbCam)
sensor fluorescence upon GAPDH addition [1]: almost immediate recovery of fluorescence

NC(=O)c1ccc[n+]([C@@H]2O[C@H](COP(=O)([O-])OP(=O)(O)OC[C@H]3O[C@@H](n4cnc5c(N)ncnc54)[C@H](O)[C@@H]3O)[C@@H](O)[C@H]2O)c1 [NAD+, nicotinamide adenine dinucleotide]
effect of substrate on sensor fluorescence / recognition by the sensor (NAD+ sensor): decreased sensor fluorescence

cpVenus: circularly permuted version of Venus fluorescent protein, control
effect of NAD+ on fluorescence in permeabilized cells [2]: minimally affected | effect of NAD+ on fluorescence (ex. 488 nm) [3]: minimally affected

sensor: NAD+ biosensor polypeptide: FLAG, HA, LigA 78-317 fragment, cpVenus, linker, LigA 2-70 fragment
effect of NAD+ on fluorescence lifetime [4]: did not affect | reversibility of NAD+ binding [5]: reversible | change in the Kd value with temperature ([3]; between 20-37° C.): no significant changes | Kd ([3]; in vitro, purified sensor, 488 nm, read-out: apparent Kd(NAD+)): ~65 µM | NAD+-dependent responses across pH ([3]; pH 6.5-8.0): similar | effect of NAD+ on fluorescence (ex. 488 nm) [3]: decreased | effect of NAD+ binding on second excitation peak at 405 nm ([3]; purified sensor): unaffected

O=C(/C=C/c1cccnc1)NCCCCC1CCN(C(=O)c2ccccc2)CC1 [FK866]
NAD+ recovered by HPLC (HEK293T cells [6]): depleted | sensor fluorescence in all compartments (indicating reduction in NAD+ levels) (HEK293T): increased | time at which NAD+ levels began to decrease in the majority of cells (HEK293T cells [7]): ≤ 1 h

NC(=O)c1ccc[n+]([C@@H]2O[C@H](CO)[C@@H](O)[C@H]2O)c1 [NR, nicotinamide riboside]
rescue of decreased mitochondrial NAD+ (HeLa cells [8]): not rescued | nonspecific effect on sensor fluorescence (cytoplasmic sensor): did not alter | NAD+ levels (HeLa cells [9]): increased | effect of substrate on sensor fluorescence / recognition by the sensor (NAD+ sensor): not recognized
